According to patent US4719207A, “CNS active substituted azetidinone compounds” (Yamanouchi Pharmaceutical Co., Ltd., priority 1984, dated 1988):
Where two headings read alike, the source gives them in different places.

Key:
mice = assay: Reversal effect against pentobarbital-induced hypothermia (Experiment 1); type: in vivo; settings: i.v., 10 minutes after pentobarbital (55 mg/kg i.p.), rectal temperature 30 minutes after test compound, dose required to reduce pentobarbital-hypothermia by 1.5° C.; for ED (1.5 degC): Mus musculus, iv, 0.5 h, read-out: Reversal effect against pentobarbitalhypothermia ED1.5° C
Protocol: The following experiments show the action on low body temperature induced by pentobarbital (Experiment 1), and on acute toxicity for typical compounds of the present invention.
Pentobarbital-induced hypothermia
Nine male mice weighing 18 to 22 g were used for each dosage of the test compounds. Mice were given intravenously various doses of test compounds 10 minutes after pentobarbital (55 mg/kg i.p.). Rectal temperature was measured before pentobarbital dosing and immediately before and 30 minutes after the test compounds. Effects of test compounds were evaluated as ED1.5° C., the dose required to reduce by 1.5° C. pentobarbital-hypothermia of control group of mice which received only pentobarbital and saline. The results are shown in Talbe 1.
(A) Reversal effect against pentobarbitalhypothermia ED1.5° C

Acute toxicity (i.v.) = assay: Acute toxicity (i.v.); parameters: species or system mice; settings: mouse, in vivo, iv
Protocol: That is, LD50 (i.v.) of the compound of the present invention was higher than 800 mg/kg.

| SMILES | ED (1.5 degC) (mice) [mg/kg] | further results |
| --- | --- | --- |
| NC(=O)[C@@H]1CCCN1C(=O)[C@H](Cc1c[nH]cn1)NC(=O)[C@@H]1CC(=O)N1CO [N^α -[(S)-1-hydroxymethyl-4-oxo-2-azetidinylcarbonyl]-L-histidyl-L-prolinamide] | 0.04 |  |
| NC(=O)[C@@H]1CCCN1C(=O)[C@H](Cc1c[nH]cn1)NC(=O)[C@@H]1CCC(=O)N1 [TRH, L-pyroglutamyl-L-histidyl-L-prolinamide, reference compound] |  | Reversal effect against pentobarbitalhypothermia ED1.5° C (mice): 0.1 mg/kg; LD50 at 24 h (Acute toxicity (i.v.); male mice, observed for 24 hours, read-out: LD50 (i.v.)): 751 mg/kg |
| CC1(C)C(=O)N[C@@H]1C(=O)N[C@@H](Cc1c[nH]cn1)C(=O)N1CCC[C@H]1C(N)=O [N^α -[(S)-3,3-dimethyl-4-oxo-2-azetidinylcarbonyl]-L-histidyl-L-prolinamide] |  | LD50 at 24 h (Acute toxicity (i.v.)): > 800 mg/kg |
| [N-]=[N+]=N[C@H]1C(=O)N[C@@H]1C(=O)N[C@@H](Cc1c[nH]cn1)C(=O)N1CCC[C@H]1C(N)=O [N^α -[(2S,3R)-3-azido-4-oxo-2-azetidinylcarbonyl]-L-histidyl-L-prolinamide] | < 0.01 |  |
| NC(=O)[C@@H]1CCCN1C(=O)[C@H](Cc1c[nH]cn1)NC(=O)[C@H]1NC(=O)[C@@H]1Cc1ccccc1 [N^α -[(2S,3R)-3-benzyl-4-oxo-2-azetidinylcarbonyl]-L-histidyl-L-prolinamide] | 0.04 |  |
| Cn1cnc(C[C@H](NC(=O)[C@H]2NC(=O)C2(C)C)C(=O)N2CCC[C@H]2C(N)=O)c1 [N^α -[(S)-3,3-dimethyl-4-oxo-2-azetidinylcarbonyl]-.tau.-methyl-L-histidyl-L-prolinamide] | 0.01 |  |
| CS[C@H]1C(=O)N[C@@H]1C(=O)N[C@@H](Cc1c[nH]cn1)C(=O)N1CCC[C@H]1C(N)=O [N^α -[(2R,3R)-3-methylthio-4-oxo-2-azetidinylcarbonyl]-L-histidyl-L-prolinamide] | 0.08 |  |
| C[C@H]1C(=O)N[C@@H]1C(=O)N[C@@H](Cc1cn(C)cn1)C(=O)N1CCC[C@H]1C(N)=O [.tau.-Methyl-N^α --[(2S,3R)--3-methyl-4-oxo-2-azetidinyl-carbonyl]-L-histidyl-L-prolinamide] | 0.02 |  |
| CC(O)[C@H]1C(=O)N[C@@H]1C(=O)N[C@@H](Cc1c[nH]cn1)C(=O)N1CCC[C@H]1C(N)=O (stereo partly drawn) [N^α -[(2S,3S)-3-(1-hydroxyethyl)-4-oxo-2-azetidinylcarbonyl]-L-histidyl-L-prolinamide] | 0.07 |  |
